# Where two headings read alike, the source gives them in different places.
# Experiments:
# Sphaerotheca fuliginea = assay: In vivo preventive test on Sphaerotheca fuliginea (powdery mildew on cucurbits); conditions: 500 ppm; gherkin plants sprayed 24 hours before contamination; grading 12 days after contamination vs control plants
# In short: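 Preventive spray of gherkin plants at Z11 cotyledon stage, grown at 24° C; inoculation 24 hours later with Sphaerotheca fuliginea spores (100 000 spores per ml). Efficacy graded 12 days post-inoculation as % versus solvent-treated control plants.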
# Uromyces appendiculatus = assay: In vivo preventive test on Uromyces appendiculatus (bean rust); conditions: 500 ppm; bean plants sprayed 24 hours before contamination; grading 10 days after contamination vs control plants
# Protocol: Bean plants (“Saxa” variety), sown in starter cups on a 50/50 peat soil-pozzolana substrate and grown at 24° C., are treated at the 2-leaf stage (9 cm height) by spraying with the active ingredient prepared as described above. Plants, used as controls, are treated with the mixture of acetone/tween/DMSO/water not containing the active material. After 24 hours, the plants are contaminated by spraying the leaves with an aqueous suspension of Uromyces appendiculatus spores (150 000 spores per ml).
# Septoria tritici = assay: In vivo preventive test on Septoria tritici (leaf spot on wheat); conditions: 500 ppm; wheat plants sprayed 24 hours before contamination; grading 21 to 28 days after contamination vs control plants
# In short: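 Scipion wheat at 1-leaf stage sprayed with compound, controls receiving acetone/tween/DMSO/water vehicle; 24 h later leaves inoculated with Septoria tritici spores (500 000 spores per ml). Efficacy (%) graded versus control plants 21 to 28 days after contamination.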
# Puccinia recondita = assay: In vivo preventive test on Puccinia recondita (brown rust on wheat); conditions: 500 ppm; wheat plants sprayed 24 hours before contamination; grading 10 days after contamination vs control plants
# Protocol: Wheat plants (“Scipion” variety), sown in starter cups on a 50/50 peat soil-pozzolana substrate and grown at 22° C. (12 h)/20° C. (12 h), are treated at the 1-leaf stage (10 cm height) by spraying with the active ingredient prepared as described above. Plants, used as controls, are treated with the mixture of acetone/tween/DMSO/water not containing the active material. After 24 hours, the plants are contaminated by spraying the leaves with an aqueous suspension of Puccinia recondita spores (100 000 spores per ml).
# [1] = type: physicochemical
# Botrytis cinerea = assay: In vivo preventive test on Botrytis cinerea (grey mould); conditions: 500 ppm; gherkin plants sprayed 24 hours before contamination; grading 4-5 days after contamination vs control plants
# In short: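 Gherkin plants ("Vert petit de Paris") sprayed with compound at Z11 cotyledon stage, then inoculated 24 h later with B. cinerea spores (50 000/ml) in PDB/fructose/NH4NO3/KH2PO4 nutrient solution. Incubated at 17 °C, 80% RH; % efficacy versus solvent-treated controls graded 4–5 days after contamination.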
# Phytophthora infestans = type: in vivo; conditions: 500 ppm; tomato plants sprayed 24 hours before contamination; grading 5 days after contamination vs control plants
# Pyrenophora teres = assay: In vivo preventive test on Pyrenophora teres (net blotch on barley); conditions: 500 ppm; barley plants sprayed 24 hours before contamination; grading 12 days after contamination vs control plants
# Protocol: Barley plants (“Plaisant” variety), sown in starter cups on a 50/50 peat soil-pozzolana substrate and grown at 22° C. (12 h)/20° C. (12 h), are treated at the 1-leaf stage (10 cm height) by spraying with the active ingredient prepared as described above. Plants, used as controls, are treated with the mixture of acetone/tween/DMSO/water not containing the active material. After 24 hours, the plants are contaminated by spraying the leaves with an aqueous suspension of Pyrenophora teres spores (12 000 spores per ml). The spores are collected from a 12-day-old culture. […] Grading (% of efficacy) is carried out 12 days after the contamination, in comparison with the control plants.
# Alternaria brassicae = assay: In vivo preventive test on Alternaria brassicae (leaf spot on radish); conditions: 500 ppm; radish plants sprayed 24 hours before contamination; grading 5 days after contamination vs control plants
# In short: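 Radish plants ('Pernod Clair', grown at 17 °C) were spray-treated at the 2-leaf stage; controls received solvent mix only. After 24 h, leaves were sprayed with 50 000 spores/ml from 15-day-old cultures, and % efficacy was graded 5 days post-inoculation against controls.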
# [2] = method [a]: HPLC/LC-MS on reversed phase at pH 2.7, 0.1% formic acid in water / acetonitrile, gradient 10% to 95% acetonitrile
# [3] = method [a]: HPLC/LC-MS on reversed phase at pH 2.7, 0.1% formic acid in water / acetonitrile, linear gradient 10% to 95% acetonitrile
# [4] = HPLC on reversed phase columns, method [a]: pH 2.7, 0.1% formic acid in water / acetonitrile, linear gradient 10% to 95% acetonitrile
SMILES,% of efficacy (protection) (Sphaerotheca fuliginea) [%],% of efficacy (protection) (Uromyces appendiculatus) [%],% of efficacy (protection) (Septoria tritici) [%],% of efficacy (protection) (Puccinia recondita) [%],"log P [1, 2]",% of efficacy (protection) (Botrytis cinerea) [%],% of efficacy (protection) (Phytophthora infestans) [%],% of efficacy (protection) (Pyrenophora teres) [%],"log P [1, 3]","log P [1, 4]",% of efficacy (protection) (Alternaria brassicae) [%]
C#Cc1cnc2ccc(C3=NOC(CC)(C(=O)NCC4COC(C)(C)O4)C3)cc2c1 (mixture of isomers) [compound 441],94,91,100,83,2.66[a],,,,,,
CC(C)NC(=O)C1(C)CC(c2ccc3ncc(-c4ccco4)cc3c2)=NO1 (racemic) [compound 382],,89,,79,2.77[a],,,,,,
C#Cc1cnc2ccc(C3=NOC(OC)(C(=O)NC4CCC4)C3)cc2c1 (racemic) [compound 429],83,71,100,89,2.54[a],100,,,,,
Cn1cc(NC(=O)C2(C)CC(c3ccc4ncc(Br)cc4c3)=NO2)cn1 (racemic) [compound 434],,97,100,88,2.17[a],,,,,,
C#Cc1cnc2ccc(C3=NOC(CC)(C(=O)NCc4cn(CC)nc4C)C3)cc2c1 (racemic) [compound 438],89,97,100,88,2.37[a],,87,,,,
C#Cc1cnc2ccc(C3=NOC(CC)(C(=O)NCCCOCC)C3)cc2c1 (racemic) [compound 440],89,,,,2.73[a],,,75,,,
C#Cc1cnc2ccc(C3=NOC(OC)(C(=O)NCc4cn(CC)nc4C)C3)cc2c1 (racemic) [compound 442],100,88,97,89,2.14[a],100,94,,,,
C#Cc1cnc2ccc(C3=NOC(CC)(C(=O)NC4CCC4)C3)cc2c1 (racemic) [compound 447],75,100,75,89,2.94[a],97,,,,,
COC1(C(=O)NC2CC2)CC(c2ccc3ncc(I)cc3c2)=NO1 (racemic) [compound 450],98,91,98,89,2.48[a],100,,,,,
CC1(C(=O)NCc2ccc3c(c2)CCO3)CC(c2ccc3ncc(Br)cc3c2)=NO1 (stereo not drawn) [compound 122],,,,,,,,86,3.13^[a],,
CCn1cc(CNC(=O)C2(C)CC(c3ccc4ncc(-c5ccccc5)cc4c3)=NO2)c(C)n1 (stereo not drawn) [compound 140],83,96,80,81,,,,,2.63^[a],,
C#Cc1cnc2ccc(C3=NOC(C)(C(=O)NCc4ccccc4)C3)cc2c1 (stereo not drawn) [compound 169],,,100,,,100,,79,2.86^[a],,
Cc1nn(C)c(C)c1CNC(=O)C1(C)CC(c2ccc3ncc(Br)cc3c2)=NO1 (stereo not drawn) [compound 177],,,,,,,,86,2.13^[a],,
Cc1c(CNC(=O)C2(C)CC(c3ccc4ncc(Br)cc4c3)=NO2)cnn1C (stereo not drawn) [compound 179],,,,,,,,86,2.15^[a],,
C#Cc1cnc2ccc(C3=NOC(C)(C(=O)NCc4ccc(Cl)cc4)C3)cc2c1 (stereo not drawn) [compound 200],,,,,,,,71,3.23^[a],,
CC(NC(=O)C1(C)CC(c2ccc3ncc(Br)cc3c2)=NO1)c1ccccn1 (stereo not drawn) [compound 205],75,70,100,,,84,,,2.14^[a],,
C#Cc1cnc2ccc(C3=NOC(C)(C(=O)NCc4cccc5ccccc45)C3)cc2c1 (stereo not drawn) [compound 225],,,,,,,,79,3.46^[a],,
C#CC1(NC(=O)C2(C)CC(c3ccc4ncc(Br)cc4c3)=NO2)CCCCC1 (stereo not drawn) [compound 237],,80,,,,,,,,3.9^[a],71
CCc1cnc2ccc(C3=NOC(C)(C(=O)NCc4cn(CC)nc4C)C3)cc2c1 (stereo not drawn) [compound 256],,,100,,,,,75,,1.72^[a],
CCn1cc(CNC(=O)C2(C)CC(c3ccc4ncc(-c5cncnc5)cc4c3)=NO2)c(C)n1 (stereo not drawn) [compound 265],,96,,88,,,,,,1.62^[a],
COCC(COC)NC(=O)C1(C)CC(c2ccc3ncc(Br)cc3c2)=NO1 (stereo not drawn) [compound 305],,80,,,,,,,,2.56[a],
COC1(C(=O)NC2CCC2)CC(c2ccc3ncc(Br)cc3c2)=NO1 (stereo not drawn) [compound 414],98,100,100,89,2.84[a],100,,,,,
COC1C(c2ccc3ncc(Br)cc3c2)=NOC1(C)C(=O)NC(C)C (stereo not drawn) [compound 419],,,,,2.91[a],,,75,,,
C/C(=N\O)C1(C(=O)NC(C)C)CC(c2ccc3ncc(Br)cc3c2)=NO1 (stereo not drawn) [compound 420],,97,,94,2.58[a],,,,,,
C#Cc1cnc2ccc(C3=NOC(OC)(C(=O)NCC4COC(C)(C)O4)C3)cc2c1 (stereo not drawn) [compound 476],98,77,97,90,2.35[a],100,85,,,,
COC1(C(=O)NCC(O)CO)CC(c2ccc3ncc(Br)cc3c2)=NO1 (stereo not drawn) [compound 477],75,86,,90,1.59[a],,98,,,,
CC(C)NC(=O)C1(C(F)F)CC(c2ccc3ncc(Br)cc3c2)=NO1 (stereo not drawn) [compound 480],,83,,90,,,,,,,
COC1(C(=O)NC2CCC2)CC(c2ccc3ncc(I)cc3c2)=NO1 (stereo not drawn) [compound 482],100,98,100,83,2.95[a],100,,,,,
C#Cc1cnc2ccc(C3=NOC(C)(C(=O)NCc4ccsc4)C3)cc2c1 (stereo not drawn) [compound 515],93,91,97,,,100,,,,2.71[a],
C=C(C)C1(C(=O)NCC2COC(C)(C)O2)CC(c2ccc3ncc(Br)cc3c2)=NO1 (stereo not drawn) [compound 520],,,79,,,,,88,,3.29[a],

# Reference: US9510598B2, “Nitrogen-containing heterocyclic compounds for plant disease control” (BAYER CROPSCIENCE AG, priority 2012, dated 2016)
